In patent US6737383B1, “Herbicidal oxadiazolidines” (priority 1999, dated 2004):

Tests used:
smallflower flatsedge = assay: Test B flood test smallflower flatsedge; assay type: in vivo, Cyperus difformis
In short: (§1)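 Plants were grown to the 2-leaf stage before treatment with test chemical, then held in a greenhouse for twelve to sixteen days. Injury was visually rated against untreated controls on a 0–10 scale, where 0 is no effect and 10 is complete control.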

soybean = assay: Test B pre/postemergence soybean; assay type: in vivo, Glycine max; details: for Plant response rating, Soybean: scale of 0 to 10 where 0 is no effect and 10 is complete control
In short: (§2)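 Response is a visual 0-to-10 score relative to untreated plants, where 0 means no effect and 10 means complete control, taken twelve to sixteen days after application. Treatments went onto soil at planting and onto foliage of 1- to 4-leaf plants, using a surfactant-containing non-phytotoxic solvent.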

crabgrass = assay: Test B pre/postemergence crabgrass; assay type: in vivo, Digitaria sanguinalis
In short: as §2

morningglory = assay: Test B pre/postemergence morningglory; assay type: in vivo, Ipomoea hederacea; details: for Plant response rating, Morningglory: scale of 0 to 10 where 0 is no effect and 10 is complete control
In short: as §2

surinam grass = assay: Test B pre/postemergence surinam grass; assay type: in vivo, Brachiaria decumbens
In short: as §2

rice = assay: Test B flood test rice; assay type: in vivo, Oryza sativa
In short: as §1

wild oat = assay: Test B pre/postemergence wild oat; assay type: in vivo, Avena fatua; details: for Plant response rating, Wild oats: scale of 0 to 10 where 0 is no effect and 10 is complete control
In short: as §2

wheat = assay: Test B pre/postemergence wheat; assay type: in vivo, Triticum aestivum; details: for Plant response rating, Wheat: scale of 0 to 10 where 0 is no effect and 10 is complete control
In short: as §2

corn = assay: Test B pre/postemergence corn; assay type: in vivo, Zea mays
In short: as §2

bamyardgrass = assay: Test B flood test barnyardgrass; assay type: in vivo, Echinochloa crus-galli
In short: as §1

rape = assay: Test B pre/postemergence rape; assay type: in vivo, Brassica napus; details: for Plant response rating, Rape: scale of 0 to 10 where 0 is no effect and 10 is complete control
In short: as §2

blackgrass = assay: Test B pre/postemergence blackgrass; assay type: in vivo, Alopecurus myosuroides
In short: as §2

cocklebur = assay: Test B pre/postemergence cocklebur; assay type: in vivo, Xanthium strumarium
In short: as §2

pigweed = assay: Test B pre/postemergence pigweed; assay type: in vivo, Amaranthus retroflexus; details: for Plant response rating, Redroot pigweed: scale of 0 to 10 where 0 is no effect and 10 is complete control
In short: as §2

velvetleaf = assay: Test B pre/postemergence velvetleaf; assay type: in vivo, Abutilon theophrasti; details: for Plant response rating, Velvetleaf: scale of 0 to 10 where 0 is no effect and 10 is complete control
In short: as §2

duck salad = assay: Test B flood test duck salad; assay type: in vivo, Heteranthera limosa
In short: as §1

sugar beet = assay: Test B pre/postemergence sugar beet; assay type: in vivo, Beta vulgaris; details: for Plant response rating, Sugarbeets: scale of 0 to 10 where 0 is no effect and 10 is complete control
In short: as §2

giant foxtail = assay: Test B pre/postemergence giant foxtail; assay type: in vivo, Setaria faberii
In short: as §2

purple nutsedge = assay: Test B pre/postemergence purple nutsedge; assay type: in vivo, Cyperus rotundus; details: for Plant response rating, Nutsedge: scale of 0 to 10 where 0 is no effect and 10 is complete control
In short: as §2

[1] = Rate 62 g/ha, flood test species, Pre-emergence, visual evaluation after twelve to sixteen days
[2] = Rate 125 g/ha, under heading Pre-emergence, flood test species, visual evaluation after twelve to sixteen days
[3] = Rate 250 g/ha, Pre-emergence (flood test species), scale 0 to 10, 0 is no effect, 10 is complete control
[4] = Rate 500 g/ha, Pre-emergence, flood test species, scale 0 to 10 (0 no effect, 10 complete control)
[5] = Postemergence, Rate 250 g/ha, scale 0 to 10
[6] = Preemergence, Rate 250 g/ha, scale 0 to 10, 0 is no effect, 10 is complete control
[7] = Rate 62 g/ha, Postemergence, scale 0 to 10 (0 no effect, 10 complete control)
[8] = Rate 125 g/ha, Postemergence, scale 0 to 10, 0 is no effect, 10 is complete control
[9] = Postemergence, Rate 500 g/ha, scale of 0 to 10 where 0 is no effect and 10 is complete control
[10] = Preemergence, Rate 62 g/ha, scale of 0 to 10 where 0 is no effect and 10 is complete control
[11] = Preemergence, Rate 500 g/ha, scale 0 to 10, 0 is no effect, 10 is complete control
[12] = Preemergence, Rate 125 g/ha, scale of 0 to 10 where 0 is no effect and 10 is complete control

CCOC(=O)CC(C(=O)OCC)n1c(=O)on(C(=O)N(c2ccc(F)cc2F)C(C)C)c1=O (centres unmarked) [Compound 465]
Plant response rating, S. Flatsedge (0 to 10 scale, 0 is no effect, 10 is complete control) (smallflower flatsedge; [1]): 0 | S. Flatsedge plant response rating (0 to 10 scale, 0 is no effect, 10 is complete control) (smallflower flatsedge; [2]): 0 | S. Flatsedge plant response rating (smallflower flatsedge; [3]): 0 | S. Flatsedge plant response rating (smallflower flatsedge; [4]): 0 | Soybean plant response rating (soybean; [5]): 1 | Plant response rating, Soybean (soybean; Preemergence, Rate 62 g/ha): 0 | Plant response rating, Soybean (soybean; Preemergence, Rate 125 g/ha): 0 | Soybean plant response rating (soybean; [6]): 7 | Soybean plant response rating (soybean; [7]): 1 | Soybean plant response rating (soybean; [8]): 1 | Crabgrass plant response rating (crabgrass; [5]): 5 | Crabgrass plant response rating (crabgrass; [9]): 8 | Plant response rating, Crabgrass (crabgrass; [10]): 2 | Crabgrass plant response rating (crabgrass; [6]): 4 | Crabgrass plant response rating (crabgrass; [11]): 10 | Crabgrass plant response rating (crabgrass; [7]): 1 | Crabgrass plant response rating (crabgrass; [8]): 1 | Morningglory plant response rating (morningglory; [5]): 2 | Plant response rating, Morningglory (morningglory; Preemergence, Rate 62 g/ha): 0 | Plant response rating, Morningglory (morningglory; Preemergence, Rate 125 g/ha): 0 | Morningglory plant response rating (morningglory; [6]): 0 | Morningglory plant response rating (morningglory; [11]): 0 | Morningglory plant response rating (morningglory; [7]): 0 | Morningglory plant response rating (morningglory; [8]): 1 | B. signalgrass plant response rating (surinam grass; Postemergence, Rate 250 g/ha, scale 0 to 10, 0 no effect, 10 complete control): 0 | B. signalgrass plant response rating (surinam grass; [9]): 0 | Plant response rating, B. signalgrass (surinam grass; [10]): 0 | Plant response rating, B. signalgrass (surinam grass; [12]): 2 | B. signalgrass plant response rating (surinam grass; [6]): 3 | B. signalgrass plant response rating (surinam grass; [11]): 5 | B. signalgrass plant response rating (surinam grass; [7]): 0 | B. signalgrass plant response rating (surinam grass; [8]): 0 | Plant response rating, Rice (0 to 10 scale, 0 is no effect, 10 is complete control) (rice; [1]): 0 | Rice plant response rating (0 to 10 scale, 0 is no effect, 10 is complete control) (rice; [2]): 0 | Rice plant response rating (rice; [3]): 0 | Rice plant response rating (rice; [4]): 0 | Wild oats plant response rating (wild oat; [5]): 0 | Plant response rating, Wild oats (wild oat; Preemergence, Rate 62 g/ha): 0 | Plant response rating, Wild oats (wild oat; Preemergence, Rate 125 g/ha): 0 | Wild oats plant response rating (wild oat; [6]): 2 | Wild oats plant response rating (wild oat; [11]): 3 | Wild oats plant response rating (wild oat; [7]): 0 | Wild oats plant response rating (wild oat; [8]): 0 | Wheat plant response rating (wheat; [5]): 0 | Plant response rating, Wheat (wheat; Preemergence, Rate 62 g/ha): 0 | Plant response rating, Wheat (wheat; Preemergence, Rate 125 g/ha): 0 | Wheat plant response rating (wheat; [6]): 0 | Wheat plant response rating (wheat; [11]): 0 | Wheat plant response rating (wheat; [7]): 0 | Wheat plant response rating (wheat; [8]): 0 | Corn plant response rating (corn; [5]): 0 | Corn plant response rating (corn; [9]): 2 | Plant response rating, Corn (corn; [10]): 0 | Plant response rating, Corn (corn; [12]): 0 | Corn plant response rating (corn; [6]): 0 | Corn plant response rating (corn; [11]): 2 | Corn plant response rating (corn; [7]): 0 | Corn plant response rating (corn; [8]): 0 | Plant response rating, Barnyardgrass (0 to 10 scale, 0 is no effect, 10 is complete control) (bamyardgrass; [1]): 0 | Barnyardgrass plant response rating (0 to 10 scale, 0 is no effect, 10 is complete control) (bamyardgrass; [2]): 0 | Barnyardgrass plant response rating (bamyardgrass; [3]): 0 | Barnyardgrass plant response rating (bamyardgrass; [4]): 0 | Rape plant response rating (rape; [5]): 0 | Plant response rating, Rape (rape; Preemergence, Rate 62 g/ha): 0 | Plant response rating, Rape (rape; Preemergence, Rate 125 g/ha): 2 | Rape plant response rating (rape; [6]): 2 | Rape plant response rating (rape; [11]): 5 | Rape plant response rating (rape; [7]): 0 | Rape plant response rating (rape; [8]): 0 | Blackgrass plant response rating (blackgrass; [5]): 6 | Blackgrass plant response rating (blackgrass; [9]): 8 | Plant response rating, Blackgrass (blackgrass; [10]): 2 | Plant response rating, Blackgrass (blackgrass; [12]): 3 | Blackgrass plant response rating (blackgrass; [6]): 6 | Blackgrass plant response rating (blackgrass; [11]): 10 | Blackgrass plant response rating (blackgrass; [7]): 0 | Blackgrass plant response rating (blackgrass; [8]): 2 | Cocklebur plant response rating (cocklebur; [5]): 0 | Cocklebur plant response rating (cocklebur; [9]): 0 | Plant response rating, Cocklebur (cocklebur; [10]): 0 | Plant response rating, Cocklebur (cocklebur; [12]): 0 | Cocklebur plant response rating (cocklebur; [6]): 0 | Cocklebur plant response rating (cocklebur; [11]): 0 | Cocklebur plant response rating (cocklebur; [7]): 0 | Cocklebur plant response rating (cocklebur; [8]): 0 | Redroot pigweed plant response rating (pigweed; [5]): 0 | Plant response rating, Redroot pigweed (pigweed; Preemergence, Rate 62 g/ha): 3 | Plant response rating, Redroot pigweed (pigweed; Preemergence, Rate 125 g/ha): 9 | Redroot pigweed plant response rating (pigweed; [6]): 9 | Redroot pigweed plant response rating (pigweed; [11]): 10 | Redroot pigweed plant response rating (pigweed; [7]): 0 | Redroot pigweed plant response rating (pigweed; [8]): 0 | Velvetleaf plant response rating (velvetleaf; [5]): 3 | Plant response rating, Velvetleaf (velvetleaf; Preemergence, Rate 62 g/ha): 0 | Plant response rating, Velvetleaf (velvetleaf; Preemergence, Rate 125 g/ha): 3 | Velvetleaf plant response rating (velvetleaf; [6]): 7 | Velvetleaf plant response rating (velvetleaf; [11]): 8 | Velvetleaf plant response rating (velvetleaf; [7]): 0 | Velvetleaf plant response rating (velvetleaf; [8]): 0 | Plant response rating, Ducksalad (0 to 10 scale, 0 is no effect, 10 is complete control) (duck salad; [1]): 0 | Ducksalad plant response rating (0 to 10 scale, 0 is no effect, 10 is complete control) (duck salad; [2]): 0 | Ducksalad plant response rating (duck salad; [3]): 0 | Ducksalad plant response rating (duck salad; [4]): 0 | Sugarbeets plant response rating (sugar beet; [5]): 0 | Plant response rating, Sugarbeets (sugar beet; Preemergence, Rate 62 g/ha): 0 | Plant response rating, Sugarbeets (sugar beet; Preemergence, Rate 125 g/ha): 2 | Sugarbeets plant response rating (sugar beet; [6]): 3 | Sugarbeets plant response rating (sugar beet; [11]): 5 | Sugarbeets plant response rating (sugar beet; [7]): 0 | Sugarbeets plant response rating (sugar beet; [8]): 0 | Giant foxtail plant response rating (giant foxtail; [5]): 5 | Giant foxtail plant response rating (giant foxtail; [9]): 9 | Plant response rating, Giant foxtail (giant foxtail; [10]): 7 | Plant response rating, Giant foxtail (giant foxtail; [12]): 10 | Giant foxtail plant response rating (giant foxtail; [6]): 10 | Giant foxtail plant response rating (giant foxtail; [11]): 10 | Giant foxtail plant response rating (giant foxtail; [7]): 2 | Giant foxtail plant response rating (giant foxtail; [8]): 5 | Nutsedge plant response rating (purple nutsedge; [5]): 0 | Plant response rating, Nutsedge (purple nutsedge; Preemergence, Rate 62 g/ha): 0 | Plant response rating, Nutsedge (purple nutsedge; Preemergence, Rate 125 g/ha): 0 | Nutsedge plant response rating (purple nutsedge; [6]): 0 | Nutsedge plant response rating (purple nutsedge; [11]): 0 | Nutsedge plant response rating (purple nutsedge; [7]): 0 | Nutsedge plant response rating (purple nutsedge; [8]): 0
